Molecular target: HEK cells stably transfected with tetracycline inducible hNR1 and hNR2A (Homo sapiens (Human), UniProt Q05586+Q12879)
Assay: Assay 1: Cell-Based Assay (cytosolic calcium, positive allosteric modulation)
Conditions: for Emax: HEK293, scaled relative to 100 μM L-glutamate maximal response (100%) and 0 μM L-glutamate (0%), with 30 μM glycine and 300 nM L-glutamate, read-out: Max %; for EC50: with 30 μM glycine and 300 nM L-glutamate (EC30), given for compounds reaching maximal response plateaus
Procedure: Assay 1: Cell-Based Assay
HEK cells stably transfected with tetracycline inducible hNR1 and hNR2A were seeded into clear bottom 384 well poly-D-lysine coated plates (2.5×10^4 cells per well) in Minimum Essential Media (MEM; without L-) including 7.5 μg mL doxycycline and 500 μM (+)-ketamine. The cells were incubated at 37° C. in 5% CO2 for 24 h. For measurement of changes in cytosolic calcium, the seeding media was removed and the cells incubated at 37° C. for 60 min with 1× Becton Dickinson Calcium Assay Kit reagent in Hanks Balanced Salt Solution (HBSS; w/o magnesium, including 1.8 mM calcium, 0.65 mg ml^−1 probenecid and 10 μM (+)-ketamine, pH 7.15) then allowed to equilibrate to rt for 30 min. Concentration-effect curves to Positive Allosteric Modulators (PAMs) were constructed by adding different concentrations (with 30 μM glycine and 300 nM L-glutamate (EC30)) to different wells in HBSS. Compounds were added after a 10 second baseline read and maximum level of relative fluorescence units (RFU) was measured over a 5 min period. Responses were scaled relative to 100 μM L-glutamate maximal response (100%) and 0 μM L-glutamate (0%). EC50 values are provided for compounds reaching maximal response plateaus, and the max % (EC50 (--)) only if no plateau was reached.
A four-parameter Hill equation was fitted to individual concentration-effect curves:
[formula] in which Y, S0, Sinf, AC50, n and c were effect, lower-asymptote, upper-asymptote, mid-point location, slope parameter, and concentration respectively.

Chain of HEK cells stably transfected with tetracycline inducible hNR1 and hNR2A (Q12879 23-1464, other chains not shown): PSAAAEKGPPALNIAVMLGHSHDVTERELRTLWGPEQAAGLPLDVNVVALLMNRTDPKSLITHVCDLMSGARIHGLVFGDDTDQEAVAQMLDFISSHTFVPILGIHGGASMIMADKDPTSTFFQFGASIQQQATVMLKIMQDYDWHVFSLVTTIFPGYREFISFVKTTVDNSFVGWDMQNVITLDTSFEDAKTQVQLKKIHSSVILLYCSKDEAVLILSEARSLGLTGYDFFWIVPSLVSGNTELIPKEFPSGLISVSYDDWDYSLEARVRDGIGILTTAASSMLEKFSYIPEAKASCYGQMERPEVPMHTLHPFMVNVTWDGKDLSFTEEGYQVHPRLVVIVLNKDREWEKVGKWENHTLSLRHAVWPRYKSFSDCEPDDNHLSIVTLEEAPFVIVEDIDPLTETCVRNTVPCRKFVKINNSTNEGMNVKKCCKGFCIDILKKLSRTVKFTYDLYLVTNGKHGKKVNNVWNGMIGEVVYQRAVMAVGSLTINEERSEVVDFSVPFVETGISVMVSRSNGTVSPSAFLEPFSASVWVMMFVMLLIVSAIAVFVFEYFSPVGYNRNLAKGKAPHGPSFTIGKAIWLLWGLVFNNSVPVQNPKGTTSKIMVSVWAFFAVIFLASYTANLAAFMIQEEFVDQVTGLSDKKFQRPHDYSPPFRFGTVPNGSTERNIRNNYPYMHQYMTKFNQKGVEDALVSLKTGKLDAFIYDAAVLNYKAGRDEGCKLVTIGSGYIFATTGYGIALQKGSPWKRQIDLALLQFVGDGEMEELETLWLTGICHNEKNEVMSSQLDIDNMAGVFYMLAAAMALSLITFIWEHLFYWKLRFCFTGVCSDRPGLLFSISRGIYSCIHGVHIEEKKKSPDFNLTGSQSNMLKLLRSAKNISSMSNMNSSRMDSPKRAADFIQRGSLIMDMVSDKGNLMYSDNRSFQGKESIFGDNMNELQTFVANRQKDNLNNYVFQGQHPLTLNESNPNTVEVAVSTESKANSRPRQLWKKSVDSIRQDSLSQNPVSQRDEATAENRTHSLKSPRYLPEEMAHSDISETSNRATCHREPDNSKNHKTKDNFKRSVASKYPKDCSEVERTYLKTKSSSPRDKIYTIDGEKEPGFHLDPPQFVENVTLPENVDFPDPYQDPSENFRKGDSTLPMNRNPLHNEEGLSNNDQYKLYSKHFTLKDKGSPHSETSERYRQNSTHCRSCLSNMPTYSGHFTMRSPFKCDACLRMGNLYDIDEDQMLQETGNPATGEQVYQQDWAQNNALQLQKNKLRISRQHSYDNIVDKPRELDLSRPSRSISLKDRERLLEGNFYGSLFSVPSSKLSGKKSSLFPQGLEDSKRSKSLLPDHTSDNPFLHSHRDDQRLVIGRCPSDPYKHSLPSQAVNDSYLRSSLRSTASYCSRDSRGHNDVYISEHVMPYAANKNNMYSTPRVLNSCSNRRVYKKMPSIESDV

CNC(=O)c1c(C)ccc2nc(Cn3nc(C4CC4)cc3C(F)(F)F)cc(=O)n12 [Compound 30, 2-[[3-cyclopropyl-5-(trifluoromethyl)pyrazol-1-yl]methyl]-N,7-dimethyl-4-oxo-pyrido[1,2-a]pyrimidine-6-carboxamide]
Emax: 101%

CNC(=O)c1c(C)ccc2nc(Cc3cccc(Cl)c3F)c(F)c(=O)n12 [Compound 31, 2-[(3-chloro-2-fluoro-phenyl)methyl]-3-fluoro-N,7-dimethyl-4-oxo-pyrido[1,2-a]pyrimidine-6-carboxamide]
Emax: 48%

CCNC(=O)c1cc(C)cc2nc(Cn3nc(C(F)(F)F)cc3C3CC3)cc(=O)n12 [Compound 32]
Emax: 136%

Cc1ccc2nc(Cn3nc(C(F)(F)F)cc3C3CC3)cc(=O)n2c1C(=O)NCC(F)(F)F [Compound 33, 2-[[5-cyclopropyl-3-(trifluoromethyl)pyrazol-1-yl]methyl]-7-methyl-4-oxo-N-(2,2,2-trifluoroethyl)pyrido[1,2-a]pyrimidine-6-carboxamide]
Emax: 198%

Cc1ccc2nc(Cn3nc(C(F)(F)F)cc3Cl)cc(=O)n2c1[C@H]1C[C@@H]1C#N [Compound 34, (1S,2S)-2-[2-[[5-chloro-3-(trifluoromethyl)pyrazol-1-yl]methyl]-7-methyl-4-oxo-pyrido[1,2-a]pyrimidin-6-yl]cyclopropanecarbonitrile]
Emax: 99% | EC50: 25500 nM

Cc1ccc2nc(Cn3nc(C(F)(F)F)cc3Cl)cc(=O)n2c1[C@@H]1C[C@H]1C#N [Compound 35, (1R,2R)-2-[2-[[5-chloro-3-(trifluoromethyl)pyrazol-1-yl]methyl]-7-methyl-4-oxo-pyrido[1,2-a]pyrimidin-6-yl]cyclopropanecarbonitrile]
Emax: 132% | EC50: 77 nM

Cc1ccc2nc(Cn3nc(C(F)(F)F)cc3Cl)cc(=O)n2c1[C@@H]1C[C@H]1CO [Compound 36, 2-[[5-chloro-3-(trifluoromethyl)pyrazol-1-yl]methyl]-6-[(1R,2R)-2-(hydroxymethyl)cyclopropyl]-7-methyl-pyrido[1,2-a]pyrimidin-4-one]
Emax: 135% | EC50: 126 nM

Cc1ccc2nc(Cn3nc(C(F)(F)F)cc3Cl)cc(=O)n2c1[C@H]1C[C@@H]1CO [Compound 37, 2-[[5-chloro-3-(trifluoromethyl)pyrazol-1-yl]methyl]-6-[(1S,2S)-2-(hydroxymethyl)cyclopropyl]-7-methyl-pyrido[1,2-a]pyrimidin-4-one]
Emax: 127%

Cc1cc([C@@H]2C[C@H]2C#N)n2c(=O)cc(Cn3nc(C(F)(F)F)cc3Cl)nc2c1 [Compound 38, (1R,2R)-2-(2-[[5-chloro-3-(trifluoromethyl)pyrazol-1-yl]methyl]-8-methyl-4-oxo-pyrido[1,2-a]pyrimidin-6-yl]cyclopropanecarbonitrile]
Emax: 144% | EC50: 39 nM

Cc1cc([C@H]2C[C@@H]2C#N)n2c(=O)cc(Cn3nc(C(F)(F)F)cc3Cl)nc2c1 [Compound 39, (1S,2S)-2-[2-[[5-chloro-3-(trifluoromethyl)pyrazol-1-yl]methyl]-8-methyl-4-oxo-pyrido[1,2-a]pyrimidin-6-yl]cyclopropanecarbonitrile]
Emax: 120% | EC50: 951 nM

N#C[C@@H]1C[C@H]1c1cccc2nc(Cn3nc(C(F)(F)F)cc3Cl)cc(=O)n12 [Compound 40, (1R,2R)-2-[2-[[5-chloro-3-(trifluoromethyl)pyrazol-1-yl]methyl]-4-oxo-pyrido[1,2-a]pyrimidin-6-yl]cyclopropanecarbonitrile]
Emax: 148%

N#C[C@H]1C[C@@H]1c1cccc2nc(Cn3nc(C(F)(F)F)cc3Cl)cc(=O)n12 [Compound 41, (1S,2S)-2-[2-[[5-chloro-3-(trifluoromethyl)pyrazol-1-yl]methyl]-4-oxo-pyrido[1,2-a]pyrimidin-6-yl]cyclopropanecarbonitrile]
Emax: 111% | EC50: 2900 nM

N#C[C@H]1C[C@@H]1c1c(Cl)ccc2nc(Cn3nc(C(F)(F)F)cc3Cl)cc(=O)n12 [Compound 42, (1S,2S)-2-[7-chloro-2-[[5-chloro-3-(trifluoromethyl)pyrazol-1-yl]methyl]-4-oxo-pyrido[1,2-a]pyrimidin-6-yl]cyclopropanecarbonitrile]
Emax: 110% | EC50: 10600 nM

Cc1cc(C2CC2C#N)n2c(=O)cc(Cn3nc(Cl)cc3C(F)(F)F)nc2c1 (stereo not drawn) [Compound 43, 2-[2-[[3-chloro-5-(trifluoromethyl)pyrazol-1-yl]methyl]-8-methyl-4-oxo-pyrido[1,2-a]pyrimidin-6-yl]cyclopropanecarbonitrile]
Emax: 145% | EC50: 269 nM

Cc1ccc2nc(Cn3nc(Cl)cc3C(F)(F)F)cc(=O)n2c1C1CC1C#N (stereo not drawn) [Compound 44, 2-[2-[[3-chloro-5-(trifluoromethyl)pyrazol-1-yl]methyl]-7-methyl-4-oxo-pyrido[1,2-a]pyrimidin-6-yl]cyclopropanecarbonitrile]
Emax: 158% | EC50: 227 nM

N#C[C@@H]1C[C@H]1c1c(F)ccc2nc(Cn3nc(C(F)(F)F)cc3Cl)cc(=O)n12 [Compound 45, (1R,2R)-2-[2-[[5-chloro-3-(trifluoromethyl)pyrazol-1-yl]methyl]-7-fluoro-4-oxo-pyrido[1,2-a]pyrimidin-6-yl]cyclopropanecarbonitrile]
Emax: 151%

N#C[C@H]1C[C@@H]1c1c(F)ccc2nc(Cn3nc(C(F)(F)F)cc3Cl)cc(=O)n12 [Compound 46, (1S,2S)-2-[2-[[5-chloro-3-(trifluoromethyl)pyrazol-1-yl]methyl]-7-fluoro-4-oxo-pyrido[1,2-a]pyrimidin-6-yl]cyclopropanecarbonitrile]
Emax: 107% | EC50: 3220 nM

N#CC1CC1c1c(F)ccc2nc(Cn3nc(Cl)cc3C(F)(F)F)cc(=O)n12 (stereo not drawn) [Compound 47, 2-[2-[[3-chloro-5-(trifluoromethyl)pyrazol-1-yl]methyl]-7-fluoro-4-oxo-pyrido[1,2-a]pyrimidin-6-yl]cyclopropanecarbonitrile]
Emax: 200% | EC50: 178 nM

O=c1cc(Cn2nc(C(F)(F)F)cc2Cl)nc2ccccn12 [Compound 48, 2-[[5-chloro-3-(trifluoromethyl)pyrazol-1-yl]methyl]pyrido[1,2-a]pyrimidin-4-one]
Emax: 73% | EC50: 32400 nM

CC(=O)c1cccc2nc(Cn3nc(C(F)(F)F)cc3Cl)cc(=O)n12 [Compound 49, 6-acetyl-2-[[5-chloro-3-(trifluoromethyl)pyrazol-1-yl]methyl]pyrido[1,2-a]pyrimidin-4-one]
Emax: 126% | EC50: 12300 nM

CC(=O)c1c(C)ccc2nc(Cn3nc(C(F)(F)F)cc3Cl)cc(=O)n12 [Compound 50, 6-acetyl-2-[[5-chloro-3-(trifluoromethyl)pyrazol-1-yl]methyl]-7-methyl-pyrido[1,2-a]pyrimidin-4-one]
Emax: 124% | EC50: 7700 nM

CC(=O)c1c(C)ccc2nc(Cn3nc(Cl)cc3C(F)(F)F)cc(=O)n12 [Compound 51, 6-acetyl-2-[[3-chloro-5-(trifluoromethyl)pyrazol-1-yl]methyl]-7-methyl-pyrido[1,2-a]pyrimidin-4-one]
Emax: 114% | EC50: 9100 nM

COc1ccc2nc(Cn3nc(C(F)(F)F)cc3Cl)cc(=O)n2c1[C@@H]1C[C@H]1C#N [Compound 52, (1R,2R)-2-[2-[[5-chloro-3-(trifluoromethyl)pyrazol-1-yl]methyl]-7-methoxy-4-oxo-pyrido[1,2-a]pyrimidin-6-yl]cyclopropanecarbonitrile]
Emax: 120% | EC50: 79 nM

COc1ccc2nc(Cn3nc(C(F)(F)F)cc3Cl)cc(=O)n2c1[C@H]1C[C@@H]1C#N [Compound 53, (1S,2S)-2-[2-[[5-chloro-3-(trifluoromethyl)pyrazol-1-yl]methyl]-7-methoxy-4-oxo-pyrido[1,2-a]pyrimidin-6-yl]cyclopropanecarbonitrile]
Emax: 100%

O=c1cc(Cn2nc(C(F)(F)F)cc2Cl)nc2cc(C(F)(F)F)cc(Cl)n12 [Compound 54, 6-chloro-2-[[5-chloro-3-(trifluoromethyl)pyrazol-1-yl]methyl]-8-(trifluoromethyl)pyrido[1,2-a]pyrimidin-4-one]
Emax: 150% | EC50: 24700 nM

COc1ccc2nc(Cn3nc(Cl)cc3Cl)cc(=O)n2c1C1CC1C (stereo not drawn) [Compound 55, 2-((3,5-dichloro-1H-pyrazol-1-yl)methyl)-7-methoxy-6-(2-methylcyclopropyl)-4H-pyrido[1,2-a]pyrimidin-4-one]
Emax: 116% | EC50: 102 nM

N#C[C@@H]1C[C@H]1c1cc(C(F)(F)F)cc2nc(Cn3nc(C(F)(F)F)cc3Cl)cc(=O)n12 [Compound 56, (1R,2R)-2-(2-((5-chloro-3-(trifluoromethyl)-1H-pyrazol-1-yl)methyl)-4-oxo-8-(trifluoromethyl)-4H-pyrido[1,2-a]pyrimidin-6-yl)cyclopropanecarbonitrile]
Emax: 142% | EC50: 123 nM

Cc1cc([C@@H]2C[C@H]2C#N)n2c(=O)cc(Cn3nc(Cl)cc3Cl)nc2c1 [Compound 57, (1R,2R)-2-(2-((3,5-dichloro-1H-pyrazol-1-yl)methyl)-8-methyl-4-oxo-4H-pyrido[1,2-a]pyrimidin-6-yl)cyclopropanecarbonitrile]
Emax: 154% | EC50: 222 nM
